In assay [1] the test system is Plasmodium falciparum. Description: Relative activity compared to artemisinin against Plasmodium falciparum Sierra Leone D6. Format: functional.
Assay [2] deals with Plasmodium falciparum. Description: Relative activity compared to artemisinin against Plasmodium falciparum Indochina W2. Format: functional.

Structures are written as SMILES.

With `CC(C)[C@H]1C(=O)O[C@@H]2O[C@@]3(C)CC[C@H]4[C@H](C)CC[C@@H]1[C@@]24O3`, the Relative activity in the assay with Plasmodium falciparum [1] came out at 0.02; in the assay on Plasmodium falciparum [2] it was 0.07.

For the compound `C[C@@H]1CC[C@H]2[C@@H](CCCc3ccccc3)C(=O)O[C@@H]3O[C@@]4(C)CC[C@@H]1[C@]32O4`, the Relative activity with Plasmodium falciparum [1] and in the assay with Plasmodium falciparum [2] was 0.15 in each case.

The record behind these values is ChEMBL document CHEMBL1126576, “Structure-activity relationships of the antimalarial agent artemisinin. 1. Synthesis and comparative molecular field analysis of C-9 analogs of artemisinin and 10-deoxoartemisinin” (1993).
